Reference: ChEMBL document CHEMBL5154747, “Discovery of new carbonic anhydrase IX inhibitors as anticancer agents by toning the hydrophobic and hydrophilic rims of the active site to encounter the dual-tail approach” (Eur J Med Chem, 2022)

How the values were obtained:
A549 = assay: Anticancer activity against human A549 cells assessed as cell growth inhibition at 10 uM incubated for 48 hrs by SRB assay relative to control; assay type: functional; conditions: read-out: GI
T47D = assay: Anticancer activity against human T47D cells assessed as cell growth inhibition at 10 uM incubated for 48 hrs by SRB assay relative to control; assay type: functional; conditions: read-out: GI
SNB-75 = assay: Anticancer activity against human SNB-75 cells assessed as cell growth inhibition at 10 uM incubated for 48 hrs by SRB assay relative to control; assay type: functional; conditions: read-out: GI
LOX IMVI = assay: Anticancer activity against human LOX IMVI cells assessed as cell growth inhibition at 10 uM incubated for 48 hrs by SRB assay relative to control; assay type: functional; conditions: read-out: GI
IGROV-1 = assay: Anticancer activity against human IGROV-1 cells assessed as cell growth inhibition at 10 uM incubated for 48 hrs by SRB assay relative to control; assay type: functional; conditions: read-out: GI
MDA-MB-231 = assay: Anticancer activity against human MDA-MB-231 cells assessed as cell growth inhibition at 10 uM incubated for 48 hrs by SRB assay relative to control; assay type: functional; conditions: read-out: GI
HCT-116 = assay: Anticancer activity against human HCT-116 cells assessed as cell growth inhibition at 10 uM incubated for 48 hrs by SRB assay relative to control; assay type: functional; conditions: read-out: GI
CAKI-1 = assay: Anticancer activity against human CAKI-1 cells assessed as cell growth inhibition at 10 uM incubated for 48 hrs by SRB assay relative to control; assay type: functional; conditions: read-out: GI
RPMI-8226 = assay: Anticancer activity against human RPMI-8226 cells assessed as cell growth inhibition at 10 uM incubated for 48 hrs by SRB assay relative to control; assay type: functional; conditions: read-out: GI
HOP-92 = assay: Anticancer activity against human HOP-92 cells assessed as cell growth inhibition at 10 uM incubated for 48 hrs by SRB assay relative to control; assay type: functional; conditions: read-out: GI
SW-620 = assay: Anticancer activity against human SW-620 cells assessed as cell growth inhibition at 10 uM incubated for 48 hrs by SRB assay relative to control; assay type: functional; conditions: read-out: GI
NCI-H460 = assay: Anticancer activity against human NCI-H460 cells assessed as cell growth inhibition at 10 uM incubated for 48 hrs by SRB assay relative to control; assay type: functional; conditions: read-out: GI
SN12C = assay: Anticancer activity against human SN12C cells assessed as cell growth inhibition at 10 uM incubated for 48 hrs by SRB assay relative to control; assay type: functional; conditions: read-out: GI
MDA-MB-435 = assay: Anticancer activity against human MDA-MB-435 cells assessed as cell growth inhibition at 10 uM incubated for 48 hrs by SRB assay relative to control; assay type: functional; conditions: read-out: GI
NCI/ADR-RES = assay: Anticancer activity against human NCI/ADR-RES cells assessed as cell growth inhibition at 10 uM incubated for 48 hrs by SRB assay relative to control; assay type: functional; conditions: read-out: GI
Malme-3M = assay: Anticancer activity against human Malme-3M cells assessed as cell growth inhibition at 10 uM incubated for 48 hrs by SRB assay relative to control; assay type: functional; conditions: read-out: GI
SF-539 = assay: Anticancer activity against human SF-539 cells assessed as cell growth inhibition at 10 uM incubated for 48 hrs by SRB assay relative to control; assay type: functional; conditions: read-out: GI
PC-3 = assay: Anticancer activity against human PC-3 cells assessed as cell growth inhibition at 10 uM incubated for 48 hrs by SRB assay relative to control; assay type: functional; conditions: read-out: GI
NCI-H226 = assay: Anticancer activity against human NCI-H226 cells assessed as cell growth inhibition at 10 uM incubated for 48 hrs by SRB assay relative to control; assay type: functional; conditions: read-out: GI
OVCAR-3 = assay: Anticancer activity against human OVCAR-3 cells assessed as cell growth inhibition at 10 uM incubated for 48 hrs by SRB assay relative to control; assay type: functional; conditions: read-out: GI
SK-MEL-5 = assay: Anticancer activity against human SK-MEL-5 cells assessed as cell growth inhibition at 10 uM incubated for 48 hrs by SRB assay relative to control; assay type: functional; conditions: read-out: GI
NCI-H23 = assay: Anticancer activity against human NCI-H23 cells assessed as cell growth inhibition at 10 uM incubated for 48 hrs by SRB assay relative to control; assay type: functional; conditions: read-out: GI
MDA-MB-468 = assay: Anticancer activity against human MDA-MB-468 cells assessed as cell growth inhibition at 10 uM incubated for 48 hrs by SRB assay relative to control; assay type: functional; conditions: read-out: GI
SR = assay: Anticancer activity against human SR cells assessed as cell growth inhibition at 10 uM incubated for 48 hrs by SRB assay relative to control; assay type: functional; conditions: read-out: GI
HT-29 = assay: Anticancer activity against human HT-29 cells assessed as cell growth inhibition at 10 uM incubated for 48 hrs by SRB assay relative to control; assay type: functional; conditions: read-out: GI
HCC 2998 = assay: Anticancer activity against human HCC 2998 cells assessed as cell growth inhibition at 10 uM incubated for 48 hrs by SRB assay relative to control; assay type: functional; conditions: read-out: GI
Hs-578T = assay: Anticancer activity against human Hs-578T cells assessed as cell growth inhibition at 10 uM incubated for 48 hrs by SRB assay relative to control; assay type: functional; conditions: read-out: GI
HCT-15 = assay: Anticancer activity against human HCT-15 cells assessed as cell growth inhibition at 10 uM incubated for 48 hrs by SRB assay relative to control; assay type: functional; conditions: read-out: GI
UO-31 = assay: Anticancer activity against human UO-31 cells assessed as cell growth inhibition at 10 uM incubated for 48 hrs by SRB assay relative to control; assay type: functional; conditions: read-out: GI
SK-OV-3 = assay: Anticancer activity against human SK-OV-3 cells assessed as cell growth inhibition at 10 uM incubated for 48 hrs by SRB assay relative to control; assay type: functional; conditions: read-out: GI
A498 = assay: Anticancer activity against human A498 cells assessed as cell growth inhibition at 10 uM incubated for 48 hrs by SRB assay relative to control; assay type: functional; conditions: read-out: GI
SK-MEL-2 = assay: Anticancer activity against human SK-MEL-2 cells assessed as cell growth inhibition at 10 uM incubated for 48 hrs by SRB assay relative to control; assay type: functional; conditions: read-out: GI
UACC-257 = assay: Anticancer activity against human UACC-257 cells assessed as cell growth inhibition at 10 uM incubated for 48 hrs by SRB assay relative to control; assay type: functional; conditions: read-out: GI
NCI-H522 = assay: Anticancer activity against human NCI-H522 cells assessed as cell growth inhibition at 10 uM incubated for 48 hrs by SRB assay relative to control; assay type: functional; conditions: read-out: GI
ACHN = assay: Anticancer activity against human ACHN cells assessed as cell growth inhibition at 10 uM incubated for 48 hrs by SRB assay relative to control; assay type: functional; conditions: read-out: GI
SF-268 = assay: Anticancer activity against human SF-268 cells assessed as cell growth inhibition at 10 uM incubated for 48 hrs by SRB assay relative to control; assay type: functional; conditions: read-out: GI
KM12 = assay: Anticancer activity against human KM12 cells assessed as cell growth inhibition at 10 uM incubated for 48 hrs by SRB assay relative to control; assay type: functional; conditions: read-out: GI
MCF7 = assay: Anticancer activity against human MCF7 cells assessed as cell growth inhibition at 10 uM incubated for 48 hrs by SRB assay relative to control; assay type: functional; conditions: read-out: GI
Carbonic anhydrase 9 = Carbonic anhydrase 9 (Homo sapiens, UniProt Q16790); assay: Inhibition of recombinant human CA 9 preincubated for 15 mins by phenol red dye based stopped flow CO2 hydration assay
CCRF-CEM = assay: Anticancer activity against human CCRF-CEM cells assessed as cell growth inhibition at 10 uM incubated for 48 hrs by SRB assay relative to control; assay type: functional; conditions: read-out: GI

Row | SMILES | inhibition of growth at 10 µM (A549) | inhibition of growth at 10 µM (T47D) | inhibition of growth at 10 µM (SNB-75) | inhibition of growth at 10 µM (LOX IMVI) | inhibition of growth at 10 µM (IGROV-1) | inhibition of growth at 10 µM (MDA-MB-231) | inhibition of growth at 10 µM (HCT-116) | inhibition of growth at 10 µM (CAKI-1) | inhibition of growth at 10 µM (RPMI-8226) | inhibition of growth at 10 µM (HOP-92) | inhibition of growth at 10 µM (SW-620) | inhibition of growth at 10 µM (NCI-H460) | inhibition of growth at 10 µM (SN12C) | inhibition of growth at 10 µM (MDA-MB-435) | inhibition of growth at 10 µM (NCI/ADR-RES) | inhibition of growth at 10 µM (Malme-3M) | inhibition of growth at 10 µM (SF-539) | inhibition of growth at 10 µM (PC-3) | inhibition of growth at 10 µM (NCI-H226) | inhibition of growth at 10 µM (OVCAR-3) | further results
1 | Cc1ccc(/C=N/Nc2nc(Nc3ccccc3)nc(Nc3ccc(S(N)(=O)=O)cc3)n2)cc1 | 16% | 45% | 32% | 45% | 46% | 26% | 48% | 39% | 56% | > 10% | < 10% | 45% | 17% | 30% | < 10% | < 10% | 55% | 33% | 20% | 39% | inhibition of growth at 10 µM (SK-MEL-5): 23%; inhibition of growth at 10 µM (NCI-H23): 23%; inhibition of growth at 10 µM (MDA-MB-468): 35%; inhibition of growth at 10 µM (SR): 64%; inhibition of growth at 10 µM (HT-29): 45%; inhibition of growth at 10 µM (HCC 2998): 25%; inhibition of growth at 10 µM (Hs-578T): 37%; inhibition of growth at 10 µM (HCT-15): 46%; inhibition of growth at 10 µM (UO-31): 31%; inhibition of growth at 10 µM (SK-OV-3): < 10%; inhibition of growth at 10 µM (A498): 45%; inhibition of growth at 10 µM (SK-MEL-2): 22%; inhibition of growth at 10 µM (UACC-257): < 10%; inhibition of growth at 10 µM (NCI-H522): 10%; inhibition of growth at 10 µM (ACHN): 38%; inhibition of growth at 10 µM (SF-268): 12%; inhibition of growth at 10 µM (KM12): 34%; inhibition of growth at 10 µM (MCF7): 73%; Ki (Carbonic anhydrase 9): 26.9 nM; inhibition of growth at 10 µM (CCRF-CEM): 57%
2 | COc1ccc(/C=N/Nc2nc(Nc3ccccc3)nc(Nc3ccc(S(N)(=O)=O)cc3)n2)cc1 | 12% | 36% | 18% | 47% | 41% | 32% | 49% | 24% | 52% | < 10% | 27% | 44% | 19% | 23% | < 10% | 18% | 51% | 24% | 26% | 38% | inhibition of growth at 10 µM (SK-MEL-5): 25%; inhibition of growth at 10 µM (NCI-H23): 29%; inhibition of growth at 10 µM (MDA-MB-468): 23%; inhibition of growth at 10 µM (SR): 51%; inhibition of growth at 10 µM (HT-29): 44%; inhibition of growth at 10 µM (HCC 2998): 12%; inhibition of growth at 10 µM (Hs-578T): 41%; inhibition of growth at 10 µM (HCT-15): 31%; inhibition of growth at 10 µM (UO-31): 22%; inhibition of growth at 10 µM (SK-OV-3): < 10%; inhibition of growth at 10 µM (A498): 38%; inhibition of growth at 10 µM (SK-MEL-2): 31%; inhibition of growth at 10 µM (UACC-257): < 10%; inhibition of growth at 10 µM (NCI-H522): 17%; inhibition of growth at 10 µM (ACHN): 24%; inhibition of growth at 10 µM (SF-268): < 10%; inhibition of growth at 10 µM (KM12): 25%; inhibition of growth at 10 µM (MCF7): 59%; Ki (Carbonic anhydrase 9): 99.4 nM; inhibition of growth at 10 µM (CCRF-CEM): 54%
